Measured values taken from ChEMBL document CHEMBL5523739, “NN1213 - A Potent, Long-Acting, and Selective Analog of Human Amylin” (J Med Chem, 2024).
Values belong to the compound of their own block, whether it stands above or below them.

Legend:
Rattus norvegicus [1] = test: Appetite suppressing activity in rat assessed as reduction in food intake at 30 nmol/kg, sc measured upto 24 hrs relative to control; format: functional; design: scale not given: the % may be the effect or the level left
[2] = Solubility of compound at pH 6.5 incubated overnight by UPLC analysis; format: physicochemical; details: buffer
[3] = molecular target: T1, Amylin receptor AMY3; CALCR/RAMP3 (Rattus norvegicus, UniProt P32214+Q9JJ73); test: Displacement of 125I-rat amylin from rat AMY3R complex of CTR/RAMP3 expressed in Baby hamster kidney cell membrane incubated for 120 mins by SPA method; format: cell membranes
T1 sequence (P32214 whole entry): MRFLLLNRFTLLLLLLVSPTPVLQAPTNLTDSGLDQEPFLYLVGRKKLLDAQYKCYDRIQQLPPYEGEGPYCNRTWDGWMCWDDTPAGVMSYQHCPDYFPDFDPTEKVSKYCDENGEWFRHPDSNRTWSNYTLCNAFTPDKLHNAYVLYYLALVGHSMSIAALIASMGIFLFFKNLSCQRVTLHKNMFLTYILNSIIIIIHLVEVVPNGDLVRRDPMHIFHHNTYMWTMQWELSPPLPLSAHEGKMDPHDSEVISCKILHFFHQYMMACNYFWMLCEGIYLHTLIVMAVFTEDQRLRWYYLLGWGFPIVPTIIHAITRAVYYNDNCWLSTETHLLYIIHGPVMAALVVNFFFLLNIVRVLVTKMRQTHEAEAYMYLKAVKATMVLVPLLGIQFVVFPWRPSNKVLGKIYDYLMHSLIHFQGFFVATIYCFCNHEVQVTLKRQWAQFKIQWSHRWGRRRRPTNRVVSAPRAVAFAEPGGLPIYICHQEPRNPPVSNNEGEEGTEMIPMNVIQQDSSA
T1 sequence (Q9JJ73 whole entry): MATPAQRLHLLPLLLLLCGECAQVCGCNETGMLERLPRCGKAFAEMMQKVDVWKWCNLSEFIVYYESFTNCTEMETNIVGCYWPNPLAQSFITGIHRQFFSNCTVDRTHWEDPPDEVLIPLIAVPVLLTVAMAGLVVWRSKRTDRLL

Calcitonin receptor [4] = molecular target: T2, Calcitonin receptor (Rattus norvegicus, UniProt P32214); test: Agonist activity at rat CTR expressed in Baby hamster kidney cells incubated for 3 hrs by cAMP assay; format: functional, cell-based, Baby hamster kidney cell
T2 sequence (P32214 whole entry): T1 sequence (P32214 whole entry)

[5] = molecular target: T3, Amylin receptor AMY3; CALCR/RAMP3 (Homo sapiens, UniProt O60896+P30988); test: Displacement of 125I-rat amylin from human AMY3R complex of CTR/RAMP3 expressed in Baby hamster kidney cell membrane incubated for 120 mins by SPA method; format: cell membranes
T3 sequence (P30988 whole entry): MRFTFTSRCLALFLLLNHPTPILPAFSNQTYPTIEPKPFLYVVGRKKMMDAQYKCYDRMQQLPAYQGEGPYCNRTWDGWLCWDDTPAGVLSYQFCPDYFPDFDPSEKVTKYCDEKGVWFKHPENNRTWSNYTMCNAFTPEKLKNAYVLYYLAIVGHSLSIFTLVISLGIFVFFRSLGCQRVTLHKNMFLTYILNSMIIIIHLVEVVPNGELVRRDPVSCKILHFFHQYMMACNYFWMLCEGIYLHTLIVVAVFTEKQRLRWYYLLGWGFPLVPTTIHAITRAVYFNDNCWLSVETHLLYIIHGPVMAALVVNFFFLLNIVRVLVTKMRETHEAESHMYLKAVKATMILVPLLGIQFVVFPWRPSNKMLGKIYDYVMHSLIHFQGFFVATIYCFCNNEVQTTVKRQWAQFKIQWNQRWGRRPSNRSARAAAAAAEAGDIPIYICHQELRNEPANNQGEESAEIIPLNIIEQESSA
T3 sequence (O60896 whole entry): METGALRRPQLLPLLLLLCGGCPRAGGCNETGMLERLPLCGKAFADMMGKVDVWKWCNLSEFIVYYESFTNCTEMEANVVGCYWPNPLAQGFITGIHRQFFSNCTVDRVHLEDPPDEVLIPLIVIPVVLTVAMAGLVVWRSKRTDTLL

[6] = Stability against amyloid fibril formation at pH 7.5 assessed as lag time at 1 uM measured after 45 hrs by ThT assay; format: physicochemical; details: pH 7.5, 45 h
[7] = molecular target: T3, Amylin receptor AMY3; CALCR/RAMP3; test: Agonist activity at human AMY3R complex of CTR/RAMP3 expressed in Baby hamster kidney cells incubated for 3 hrs followed by medium replacement without compound measured after 30 mins by luciferase reporter assay; format: functional, cell-based, Baby hamster kidney cell
Calcitonin receptor [8] = molecular target: T4, Calcitonin receptor (Homo sapiens, UniProt P30988); test: Agonist activity at human CTR expressed in Baby hamster kidney cells incubated for 3 hrs followed by medium replacement without compound measured after 30 mins by luciferase reporter assay; format: functional, cell-based, Baby hamster kidney cell
T4 sequence (P30988 whole entry): T3 sequence (P30988 whole entry)

[9] = Solubility of compound at pH 6 incubated overnight by UPLC analysis; format: physicochemical; details: buffer
[10] = Solubility of compound at pH 7.5 incubated overnight by UPLC analysis; format: physicochemical; details: buffer
[11] = molecular target: T1, Amylin receptor AMY3; CALCR/RAMP3; test: Agonist activity at rat AMY3R complex of CTR/RAMP3 expressed in Baby hamster kidney cells incubated for 3 hrs by cAMP assay; format: functional, cell-based, Baby hamster kidney cell
[12] = Solubility of compound at pH 7 incubated overnight by UPLC analysis; format: physicochemical; details: buffer
[13] = Solubility of compound at pH 4 incubated overnight by UPLC analysis; format: physicochemical; details: buffer
Homo sapiens [14] = organism: Homo sapiens; test: Selectivity ratio of EC50 for human CTR expressed in Baby hamster kidney cells to EC50 for human AMY3R complex of CTR/RAMP3 expressed in Baby hamster kidney cells; format: cell-based
Rattus norvegicus [15] = test: Appetite suppressing activity in rat assessed as reduction in food intake at 30 nmol/kg, sc measured for 24 to 48 hrs relative to control; format: functional; design: scale not given: the % may be the effect or the level left; details: time 24-48 hrs
[16] = Solubility of compound at pH 3 incubated overnight by UPLC analysis; format: physicochemical; details: buffer
Rattus norvegicus [17] = organism: Rattus norvegicus; test: Selectivity ratio of EC50 for rat CTR expressed in Baby hamster kidney cells to EC50 for rat AMY3R complex of CTR/RAMP3 expressed in Baby hamster kidney cells; format: cell-based
[18] = Solubility of compound at pH 5 incubated overnight by UPLC analysis; format: physicochemical; details: buffer
[19] = Solubility of compound at pH 8 incubated overnight by UPLC analysis; format: physicochemical; details: buffer
Calcitonin receptor [20] = molecular target: T2, Calcitonin receptor; test: Displacement of 125I-Calcitonin from rat CTR expressed in Baby hamster kidney cell membrane incubated for 120 mins by SPA method; format: cell membranes
Rattus norvegicus [21] = organism: Rattus norvegicus; test: Selectivity ratio of IC50 for rat CTR expressed in Baby hamster kidney cell membrane to IC50 for rat AMY3R complex of CTR/RAMP3 expressed in Baby hamster kidney cell membrane; format: cell-based
[22] = Stability against amyloid fibril formation at pH 7.5 assessed as compound recovery at 1 uM measured after 45 hrs by ThT assay; format: physicochemical; details: pH 7.5, 45 h
Calcitonin receptor [23] = molecular target: T4, Calcitonin receptor; test: Displacement of 125I-Calcitonin from human CTR expressed in Baby hamster kidney cell membrane incubated for 120 mins by SPA method; format: cell membranes
Homo sapiens [24] = organism: Homo sapiens; test: Selectivity ratio of IC50 for human CTR expressed in Baby hamster kidney cell membrane to IC50 for human AMY3R complex of CTR/RAMP3 expressed in Baby hamster kidney cell membrane; format: cell-based

solubility [2]: ≥ 200 µM
IC50 [3]: 3.01 nM
EC50 (Calcitonin receptor [4]): 142 nM
IC50 [5]: 1.14 nM
Time [6]: 34 h
EC50 [7]: 0.432 nM
EC50 (Calcitonin receptor [8]): 10 nM
solubility [9]: ≥ 200 µM
solubility [10]: ≥ 200 µM
EC50 [11]: 1.79 nM
solubility [12]: ≥ 200 µM
solubility [13]: ≥ 200 µM
solubility [16]: ≥ 200 µM
solubility [18]: ≥ 200 µM
solubility [19]: ≥ 200 µM
IC50 (Calcitonin receptor [20]): 350 nM
Drug recovery [22]: 0%
IC50 (Calcitonin receptor [23]): 102 nM
SMILES: CC[C@H](C)[C@H](NC(=O)[C@H](C)NC(=O)CNC(=O)[C@H](Cc1ccccc1)NC(=O)[C@H](CC(N)=O)NC(=O)[C@@H]1CCCN1C(=O)[C@H](CO)NC(=O)[C@H](CO)NC(=O)[C@H](Cc1c[nH]cn1)NC(=O)[C@H](CCCNC(=N)N)NC(=O)[C@H](CC(C)C)NC(=O)[C@H](Cc1ccccc1)NC(=O)[C@H](CC(N)=O)NC(=O)[C@H](C)NC(=O)[C@H](CC(C)C)NC(=O)[C@H](CCCNC(=N)N)NC(=O)[C@H](CCC(N)=O)NC(=O)[C@@H](NC(=O)[C@H](C)NC(=O)[C@@H]1CSSC[C@H](NC(=O)[C@@H](N)CCCCN)C(=O)N[C@@H](CC(N)=O)C(=O)N[C@@H]([C@@H](C)O)C(=O)N[C@@H](C)C(=O)N[C@@H]([C@@H](C)O)C(=O)N1)[C@@H](C)O)C(=O)N1CCC[C@H]1C(=O)N[C@@H](CO)C(=O)N[C@@H](CO)C(=O)N[C@H](C(=O)N[C@@H](CC(N)=O)C(=O)N[C@H](C(=O)NCC(=O)N[C@@H](CO)C(=O)N[C@@H](CC(N)=O)C(=O)N[C@H](C(=O)N[C@@H](Cc1ccc(O)cc1)C(N)=O)[C@@H](C)O)C(C)C)[C@@H](C)O
Activity (Rattus norvegicus [1]): 22%
Ratio EC50 (Homo sapiens [14]): 23
Activity (Rattus norvegicus [15]): 1%
Ratio EC50 (Rattus norvegicus [17]): 79
Ratio IC50 (Rattus norvegicus [21]): 116
Ratio IC50 (Homo sapiens [24]): 90

SMILES: CC[C@H](C)[C@H](NC(=O)[C@H](C)NC(=O)CNC(=O)[C@H](Cc1ccccc1)NC(=O)[C@H](CC(N)=O)NC(=O)[C@@H]1CCCN1C(=O)[C@H](CO)NC(=O)[C@H](CO)NC(=O)[C@H](Cc1c[nH]cn1)NC(=O)[C@H](CCCNC(=N)N)NC(=O)[C@H](CC(C)C)NC(=O)[C@H](Cc1ccccc1)NC(=O)[C@H](CC(=O)O)NC(=O)[C@H](C)NC(=O)[C@H](CC(C)C)NC(=O)[C@H](CCCNC(=N)N)NC(=O)[C@H](CCC(N)=O)NC(=O)[C@@H](NC(=O)[C@H](C)NC(=O)[C@@H]1CSSC[C@H](NC(=O)[C@@H](N)CCCCN)C(=O)N[C@@H](CC(N)=O)C(=O)N[C@@H]([C@@H](C)O)C(=O)N[C@@H](C)C(=O)N[C@@H]([C@@H](C)O)C(=O)N1)[C@@H](C)O)C(=O)N1CCC[C@H]1C(=O)N[C@@H](CO)C(=O)N[C@@H](CO)C(=O)N[C@H](C(=O)N[C@@H](CC(N)=O)C(=O)N[C@H](C(=O)NCC(=O)N[C@@H](CO)C(=O)N[C@@H](CC(=O)O)C(=O)N[C@H](C(=O)N[C@@H](Cc1ccc(O)cc1)C(N)=O)[C@@H](C)O)C(C)C)[C@@H](C)O
Activity (Rattus norvegicus [1]): 72%
Activity (Rattus norvegicus [15]): 62%
